The text below walks through data of patent publication US8466088B2, “Herbicidal compositions containing benzoylpyrazole compounds” (Ishihara Sangyo Kaisha, Ltd., priority 2007, dated 2013).

Where two headings read alike, the source gives them in different places.

In general, inhibition refers to the relative decrease from the control value, in per cent.

One assay concerns velvetleaf. In words: Example 1: pot test, foliar treatment, visually observed growth inhibition of velvetleaf. The class given is in vivo, Abutilon theophrasti MEDIC. An excerpt: (§1) When the herbicidal activity in a case where two active ingredients are combined, is larger than the simple sum of the respective herbicidal activities of the two active ingredients (the expected activity), it is called a synergistic effect. The activity expected by the combination of two active ingredients can be calculated as follows (Colby S. R., “Weed”, vol. 15, p. 20-22, 1967). E=α+β−(α×β+100) where
(§2) α: growth inhibition rate when treated with x (g/ha) of herbicide X,
(§3) β: growth inhibition rate when treated with y (g/ha) of herbicide Y,
(§4) E: growth inhibition rate expected when treated with x (g/ha) of herbicide X and y (g/ha) of herbicide Y.
(§5) That is, when the actual growth inhibition rate (measured value) is larger than the growth inhibition rate by the above calculation (calculated value), the activity by the combination can be regarded as showing a synergistic effect.
(§6) Upland field soil was put into a 1/1,000,000 hectare pot, and seeds of various plants were sown. When the respective plants reached predetermined leaf stage, herbicidal compositions in predetermined amounts were diluted with water in an amount corresponding to 300 L/ha and applied for foliar treatment by a small sprayer.
(§7) Further, in accordance with the above Colby's formula, the growth inhibition rate (calculated value) was calculated. In Tables, with respect to the compound A, Compound Nos. in Table 1 or 3 are described, and with respect to other herbicidal compounds, common names are described.

Another assay concerns crabgrass. In words: Example 1: pot test, foliar treatment, visually observed growth inhibition of crabgrass. In kind it is in vivo.
Excerpt: as §1, §2, §3, §4, §5, §6, §7

Setting [1] is: Digitaria sanguinalis, foliar, 3.0 to 4.3 leaf stage, 21st day after application, read-out: Growth inhibition rate (%) of crabgrass, Measured value.
The mark [2] stands for this setting: Digitaria sanguinalis, foliar, 3.0 to 4.3 leaf stage, 21st day after application, 15 g/ha, read-out: Growth inhibition rate (%) of crabgrass, Measured value.
Where [3] appears, read: Digitaria sanguinalis, foliar, read-out: Growth inhibition rate (%) of crabgrass, Measured value.

For the compound `CCSC(=O)Oc1c(C(=O)c2ccc(S(C)(=O)=O)c(OCCOC)c2C)cnn1C` [No. 55, 5-(ethylthio)carbonyloxy-1-methylpyrazol-4-yl 3-(2-methoxyethoxy)-2-methyl-4-(methylsulfonyl)phenyl ketone], the “Growth inhibition rate (%) of velvetleaf, Measured value” in the assay on velvetleaf (3.0 to 3.5 leaf stage, 21st day after application, 15 g/ha) is recorded as 89%. Further, the inhibition at 7 g/ha in the assay with velvetleaf (Abutilon theophrasti, foliar, 2.0 to 2.5 leaf stage, 21st day after application, read-out: Growth inhibition rate (%) of velvetleaf, Measured value) was 65%; in the assay on velvetleaf (Abutilon theophrasti, foliar, 2.0 to 2.8 leaf stage, 21st day after application, read-out: Growth inhibition rate (%) of velvetleaf, Measured value), 70%; in the assay with crabgrass (setting [1]), 83%; with crabgrass (Digitaria sanguinalis, foliar, 3.2 to 4.2 leaf stage, 21st day after application, read-out: Growth inhibition rate (%) of crabgrass, Measured value), 80%; with crabgrass (Digitaria sanguinalis, foliar, 3.5 to 4.0 leaf stage, 21st day after application, read-out: Growth inhibition rate (%) of crabgrass, Measured value), 95%. Besides, the inhibition at 15 g/ha in the assay on velvetleaf (Abutilon theophrasti, foliar, 2.0 to 2.8 leaf stage, 21st day after application, 15 g/ha, read-out: Growth inhibition rate (%) of velvetleaf, Measured value) was found to be 90%; with velvetleaf (Abutilon theophrasti, foliar, 3.0 to 3.5 leaf stage, 21st day after application, 15 g/ha, read-out: Growth inhibition rate (%) of velvetleaf, Measured value) it was 75%; with crabgrass (setting [2]) it was 95%; with crabgrass (Digitaria sanguinalis, foliar, 3.2 to 4.2 leaf stage, 21st day after application, 15 g/ha, read-out: Growth inhibition rate (%) of crabgrass, Measured value), 98%; in the assay with crabgrass (Digitaria sanguinalis, foliar, 4.0 to 4.5 leaf stage, 21st day after application, 15 g/ha, read-out: Growth inhibition rate (%) of crabgrass, Measured value), 73%. Further, the “Growth inhibition rate (%) of crabgrass, Measured value” in the assay with crabgrass (4.0 to 4.5 leaf stage, 21st day after application, 15 g/ha) is 85%.
Consider `CCn1ncc(C(=O)c2ccc(S(C)(=O)=O)c(OCCOC)c2C)c1OC(=O)SC(C)C` [No. 208], for which the “Growth inhibition rate (%) of velvetleaf, Measured value” with velvetleaf (3.2 to 4.1 leaf stage, 21st day after application, 7.75 g/ha) is listed as 73%; with velvetleaf (3.2 to 4.1 leaf stage, 21st day after application, 15.5 g/ha) it was 73%. Moreover, the “Growth inhibition rate (%) of crabgrass, Measured value” in the assay on crabgrass (2.7 to 3.6 leaf stage, 21st day after application, 7.75 g/ha) worked out at 83%; in the assay on crabgrass (2.7 to 3.6 leaf stage, 21st day after application, 15.5 g/ha), 83%.
Regarding `CCC(CC)Nc1c([N+](=O)[O-])cc(C)c(C)c1[N+](=O)[O-]` [Pendimethalin], in the assay with velvetleaf (Abutilon theophrasti, foliar, 3.5 to 4.0 leaf stage, 22nd day after application, 200 g/ha, read-out: Growth inhibition rate (%) of velvetleaf, Measured value), the inhibition at 200 g/ha came to 45%. Besides, in the assay on crabgrass (Digitaria sanguinalis, foliar, 3.5 to 5.0 leaf stage, 22nd day after application, 100 g/ha, read-out: Growth inhibition rate (%) of crabgrass, Measured value), the inhibition at 100 g/ha is 30%.
On to `CCOCCN(C(=O)CCl)C(=C(C)C)c1ccccc1` [Pethoxamid], for which the “Growth inhibition rate (%) of velvetleaf, Measured value” in the assay on velvetleaf (3.5 to 4.0 leaf stage, 14th day after application, 200 g/ha) is given as 60%. Besides, in the assay with crabgrass (3.5 to 5.0 leaf stage, 22nd day after application, 100 g/ha), the “Growth inhibition rate (%) of crabgrass, Measured value” is reported as 0%.
On to `COc1nc(C)nc(NC(=O)NS(=O)(=O)c2ccccc2CCC(F)(F)F)n1` [Prosulfuron], for which the inhibition at 30 g/ha came out at 95% with velvetleaf (Abutilon theophrasti, foliar, 3.0 to 4.0 leaf stage, 21st day after application, 30 g/ha, read-out: Growth inhibition rate (%) of velvetleaf, Measured value); 0% with crabgrass (setting [1]); 10% in the assay with crabgrass (Digitaria sanguinalis, foliar, 3.2 to 4.1 leaf stage, 14th day after application, read-out: Growth inhibition rate (%) of crabgrass, Measured value). Moreover, the inhibition at 15 g/ha in the assay on crabgrass (setting [2]) was 0%; with crabgrass (Digitaria sanguinalis, foliar, 3.2 to 4.1 leaf stage, 14th day after application, 15 g/ha, read-out: Growth inhibition rate (%) of crabgrass, Measured value) it was 0%; in the assay with crabgrass (Digitaria sanguinalis, foliar, 3.2 to 4.1 leaf stage, 21st day after application, 15 g/ha, read-out: Growth inhibition rate (%) of crabgrass, Measured value), 0%. Further, in the assay with crabgrass (Digitaria sanguinalis, foliar, 3.2 to 4.3 leaf stage, 14th day after application, 5 g/ha, read-out: Growth inhibition rate (%) of crabgrass, Measured value), the inhibition at 5 g/ha worked out at 0%. Moreover, in the assay with crabgrass (Digitaria sanguinalis, foliar, 3.2 to 4.3 leaf stage, 14th day after application, 10 g/ha, read-out: Growth inhibition rate (%) of crabgrass, Measured value), the inhibition at 10 g/ha came out at 0%.
As to `CCCCCCCCSC(=O)Oc1cc(Cl)nnc1-c1ccccc1` [Pyridate], the inhibition at 200 g/ha was determined as 0% in the assay on velvetleaf (Abutilon theophrasti, foliar, 3.2 to 4.3 leaf stage, 21st day after application, 200 g/ha, read-out: Growth inhibition rate (%) of velvetleaf, Measured value); 0% in the assay on crabgrass (setting [1]); 0% with crabgrass (Digitaria sanguinalis, foliar, 3.2 to 4.3 leaf stage, 21st day after application, read-out: Growth inhibition rate (%) of crabgrass, Measured value); 5% with crabgrass (Digitaria sanguinalis, foliar, 4.1 to 5.3 leaf stage, 20th day after application, read-out: Growth inhibition rate (%) of crabgrass, Measured value). Further, the inhibition at 100 g/ha in the assay on crabgrass (Digitaria sanguinalis, foliar, 3.0 to 4.3 leaf stage, 21st day after application, 100 g/ha, read-out: Growth inhibition rate (%) of crabgrass, Measured value) is 0%.
Turning to `CCc1cccc(C)c1N(C(=O)CCl)[C@@H](C)COC` [S-Metolachlor, S-metolachlor, reference compound], the “Growth inhibition rate (%) of velvetleaf, Measured value” with velvetleaf (2.4 to 3.2 leaf stage, on the 22nd day after application, foliar, active ingredient amount 150 g/ha) was determined as 0%; in the assay on velvetleaf (2.5 to 3.3 leaf stage, 21st day after application, 150 g/ha) it was 0%; in the assay on velvetleaf (2.5 to 3.3 leaf stage, 21st day after application, 300 g/ha), 0%; in the assay with velvetleaf (3.0 to 3.5 leaf stage, 20th day after application, 150 g/ha), 0%; with velvetleaf (3.0 to 3.5 leaf stage, 21st day after application, 150 g/ha) it was 0%; in the assay with velvetleaf (3.0 to 3.5 leaf stage, 21st day after application, 300 g/ha), 0%. Further, the “Growth inhibition rate (%) of velvetleaf, Measured value” was determined as 0% in the assay with velvetleaf (3.0 to 3.8 leaf stage, 15th day after application, 15 g/ha); 0% in the assay with velvetleaf (3.2 to 5.0 leaf stage, 14th day after application, 150 g/ha); 0% in the assay on velvetleaf (3.3 to 4.2 leaf stage, 14th day after application, 150 g/ha); 0% with velvetleaf (3.3 to 4.2 leaf stage, 14th day after application, 300 g/ha); 0% with velvetleaf (3.5 to 4.3 leaf stage, 21st day after application, 150 g/ha). Besides, the “Growth inhibition rate (%) of crabgrass, Measured value” with crabgrass (4.0 to 4.5 leaf stage, 21st day after application, 300 g/ha) stood at 8%; in the assay on crabgrass (4.0 to 5.0 leaf stage, 21st day after application, 150 g/ha) it was 0%.
`CS(=O)(=O)c1ccc(C(=O)C2C(=O)CCCC2=O)c(Cl)c1` [Sulcotrione]: in the assay on velvetleaf (Abutilon theophrasti, foliar, read-out: Growth inhibition rate (%) of velvetleaf, Measured value, 3.2 to 4.3 leaf stage, 21st day after application, 15 g/ha), the inhibition at 15 g/ha worked out at 25%. In addition, in the assay on crabgrass (setting [3]), the inhibition at 15 g/ha is 10%, the inhibition at 15.6 g/ha was 50% and the inhibition at 31 g/ha stood at 65%.
